Measured values from patent publication US6022307A, “Substituted dibenzothiophenes having antiangiogenic activity” (American Cyanamid Company, priority 1999, dated 2000).
Structures can show the parent of a compound that is named as a salt.

Tested on: KDR
Experimental: Inhibition of Binding of VEGF 165 to KDR & Flt-1 Receptors as Measured by SPA Assay
Preparation of conditioned media containing the KDR-Fc soluble VEGF receptor.:
Human 293KDR2 cells, which secrete a soluble KDR-Fc fusion protein, were grown in Dulbecco's Modified Eagle Medium supplemented with 10% fetal calf serum, 2 mM glutamine, 10 units/ml penicillin G sulfate, 10 μg/ml streptomycin sulfate and 175 μg/ml geneticin (G418) sulfate. Cells were plated at a density of 10^6 cells/100 mm dish and incubated at 37° C. in a humidified atmosphere containing 95% air and 5% CO2. After 10 days, conditioned medium was collected and centrifuged at 15,000 rpm for 15 min to remove dead cells. A total of 0.1 volume of 1.15% gelatin and 0.02 volume of 1M HEPES buffer (pH 8) was added. Leupeptin and pepstatin A were added to 1 μg/ml each.
Preparation of ^125 I-labelled VEGF ligand:
Recombinant human ^125 T-labelled VEGF 165 was purchased from Amersham (3,800 cpm/fmol). ^125,-labelled VEGF was diluted in DMEM supplemented with gelatin (0.15%) and HEPES buffer (20 mM) to a final concentration of 40,000 cpm/25 μl.
Preparation of SPA beads:
SPA PVT antibody-binding beads were purchased from Amersham. Each bottle of SPA beads (500 mg) was reconstituted in 25 ml of DMEM supplemented with gelatin (0.15%) and HEPES buffer (20 mM). The bottle contents were well mixed (15 min with a stir bar at room temperature).
SPA assays were performed in flat-bottom polystyrene 96 well microtitre plates.
(a) Pipette 50 μl of SPA beads to well.
(b) Pipette 25 μl of conditioned medium to well.
(d) Pipette 25 μl of ^125 J-VEGF 165 to well.
The appropriate control wells were set up to measure non-specific binding, solvent effect, etc. The assays were run in duplicate or triplicate wells. Plates were sealed and incubate at room temperature without shaking for 5 to 20 hours. Plates were then counted in a Packard TopCount microtitre plate liquid scintillation counter.
A typical assay gave 3,000 to 6,000 cpm bound. Background binding (measured in the presence of 100-fold molar excess of unlabelled VEGF 165) was typically 200 to 300 cpm bound. Compounds were tested at 30, 10, 3, 1, 0.3 and 0.1 μg/ml in DMSO. […] Half maximal binding was determined by the following equation:
s=maximal cpm bound in the absence of compound.
The IC50 values were determined graphically by the following procedure:
A graph was drawn plotting compound concentration (x-axis) versus cpm bound (y-axis).
The half maximal binding was calculated using the equation above.
A horizontal line (LINE A) was drawn which intersects the y-axis at the half maximal binding value.
A vertical line (LINE B) was drawn through the point where LINE A intersects the inhibition curve.
The point where LINE B intersects the x-axis was extrapolated from the graph to give the IC50 value.

Structure (SMILES)	IC50 [µg/mL]
O=C(Nc1cc2sc3cc(NC(=O)c4ccc5cc6ccccc6cc5c4)c(C(=O)O)cc3c2cc1C(=O)O)c1ccc2cc3ccccc3cc2c1 [Example 3, 3,7-Bis[(2-anthracenylcarbonyl)amino]-2,8-dibenzothiophene-2,8-dicarboxylic acid, disodium salt]	3.4
O=C(Nc1cc2sc3cc(NC(=O)c4cc5sccc5s4)c(C(=O)O)cc3c2cc1C(=O)O)c1cc2sccc2s1 [Example 5, 3,7-Bis[(thieno[3,2-b]thien-2-ylcarbonyl)amino]dibenzothiophene-2,8-dicarboxylic acid, disodium salt]	0.7
O=C(/C=C/c1ccc(-c2ccccc2)cc1)Nc1cc2sc3cc(NC(=O)/C=C/c4ccc(-c5ccccc5)cc4)c(C(=O)O)cc3c2cc1C(=O)O [Example 9, 3,7-Bis-(3-biphenyl-4-ylacryloylamino)dibenzothiophene-2,8-dicarboxylic Acid, disodium salt]	3.4
COc1cc(/C=C/C(=O)Nc2cc3sc4cc(NC(=O)/C=C/c5cc(Br)c(O)c(OC)c5)c(C(=O)O)cc4c3cc2C(=O)O)cc(Br)c1O [Example 10, 3,7-Bis-[3-(3-bromo-4-hydroxy-5-methoxy-phenyl)acryloylamino]-dibenzothiophene-2,8-dicarboxylic Acid, disodium]	0.9
COc1ccc(/C=C/C(=O)Nc2cc3sc4cc(NC(=O)/C=C/c5ccc(OC)c(OC)c5OC)c(C(=O)O)cc4c3cc2C(=O)O)c(OC)c1OC [Example 11, 3,7-Bis-[3-(2,3,4-trimethoxyphenyl)acryloylamino]dibenzothiophene-2,8-dicarboxylic Acid, disodium salt]	1.7
C=C(C(=O)Nc1cc2sc3cc(Cl)c(C(=O)O)cc3c2cc1C(=O)O)c1ccc(OC)c(OC)c1Cl [Example 14, 3-Chloro-7-[2-(2-chloro-3,4-dimethoxyphenyl)acryloylamino]dibenzothiophene-2,8-dicarboxylic acid, disodium salt]	3
O=C(Nc1cc2sc3cc(Cl)c(C(=O)O)cc3c2cc1C(=O)O)c1ccc2cc3ccccc3cc2c1 [Example 15, 3-[(2-Anthracenylcarbonyl)amino]-7-chlorodibenzothiophene-2,8-dicarboxylic acid, disodium salt]	1.6
CCOP(=O)(O)c1cc2c(cc1NC(=O)/C=C/c1ccc(OC)c(OC)c1Cl)S(=O)(=O)c1cc(NC(=O)/C=C/c3ccc(OC)c(OC)c3Cl)c(P(=O)(O)OCC)cc1-2 [Example 19, [3,7-Bis-[3-(2-chloro-3,4-dimethoxyphenyl)acryloylamino]-8-(ethoxyhydroxyphosphoryl)-5 .5-dioxo-5H-5λ^6-dibenzothiophen-2-yl]phosphonic acid monoethyl ester, disodium salt]	0.55
CCOP(=O)(O)c1cc2c(cc1NC(=O)c1ccc3c(c1)C(=O)c1ccccc1C3=O)S(=O)(=O)c1cc(NC(=O)c3ccc4c(c3)C(=O)c3ccccc3C4=O)c(P(=O)(O)OCC)cc1-2 [Example 21, [3,7-Bis-[9,10-dioxo-9,10-dihydroanthracene-2-carbonyl)amino]-8-(ethoxyhydroxy-phosphoryl)-5,5-dioxo-5H-5^6-dibenzothiophen-2-yl]phosphonic acid monoethyl ester, disodium salt]	0.2
CCOP(=O)(O)c1cc2c(cc1NC(=O)c1ccc3cc4ccccc4cc3c1)S(=O)(=O)c1cc(NC(=O)c3ccc4cc5ccccc5cc4c3)c(P(=O)(O)OCC)cc1-2 [Example 22, [3,7-Bis-[(anthracene-2-carbonyl)amino]-8-(ethoxyhydroxy-phosphoryl)-5,5-dioxo-5H-5^6-dibenzothiophen-2-yl]-phosphonic acid mono-ethyl ester, disodium salt]	0.06
CCOP(=O)(O)c1cc2c(cc1NC(=O)c1cc3ccccc3s1)S(=O)(=O)c1cc(NC(=O)c3cc4ccccc4s3)c(P(=O)(OCC)OCC)cc1-2 [Example 23b, [3,7-Bis[(benzo[b]thiophene-2-carbonyl)amino-8-(diethoxyphosphoryl)-5,5-dioxo-5H-5λ^6-dibenzothiophen-2-yl]phosphonic acid monoethyl ester, monosodium salt]	0.58
O=C(/C=C/c1ccc([N+](=O)[O-])cc1)Nc1cc2c(cc1S(=O)(=O)O)-c1cc(S(=O)(=O)O)c(NC(=O)/C=C/c3ccc([N+](=O)[O-])cc3)cc1S2(=O)=O [Example 25, 3,7-Bis-[3-(4-nitrophenyl)-acryloylamino]-5,5-dioxo-5H-5^6-dibenzothiophene-2,8-disulfonic acid, disodium salt]	1
O=C(/C=C/c1cccc2ccccc12)Nc1cc2c(cc1S(=O)(=O)O)-c1cc(S(=O)(=O)O)c(NC(=O)/C=C/c3cccc4ccccc34)cc1S2(=O)=O [Example 26, 3,7-Bis-(3-naphthalen-1-yl-acryloylamino)-5,5-dioxo-5H-5^6-dibenzothiophene-2,8-disulfonic acid, disodium salt]	1.5
O=C(/C=C/c1ccncc1)Nc1cc2c(cc1S(=O)(=O)O)-c1cc(S(=O)(=O)O)c(NC(=O)/C=C/c3ccncc3)cc1S2(=O)=O [Example 28, 5,5-Dioxo-3,7-bis-(3-pyridin-4-ylacryloylamino)-5H-5^6-dibenzothiophene-2,8-disulfonic acid, disodium salt]	2.5
O=C(/C=C/c1cccc(O)c1)Nc1cc2c(cc1S(=O)(=O)O)-c1cc(S(=O)(=O)O)c(NC(=O)/C=C/c3cccc(O)c3)cc1S2(=O)=O [Example 31, 3,7-Bis-[(E)-3-(3-hydroxy-phenyl)acryloylamino]-5,5-dioxo-5H-5^6-dibenzothiophene-2,8-disulfonic acid, disodium]	5
N#Cc1ccc(/C=C/C(=O)Nc2cc3c(cc2S(=O)(=O)O)-c2cc(S(=O)(=O)O)c(NC(=O)/C=C/c4ccc(C#N)cc4)cc2S3(=O)=O)cc1 [Example 32, 3,7-Bis-[3-(4-cyanophenyl)-acryloylamino]-5,5-dioxo-5H-5^6-dibenzothiophene-2,8-disulfonic acid, disodium salt]	0.8
O=C(/C=C/c1ccc(Br)cc1)Nc1cc2c(cc1S(=O)(=O)O)-c1cc(S(=O)(=O)O)c(NC(=O)/C=C/c3ccc(Br)cc3)cc1S2(=O)=O [Example 33, 3,7-Bis-[3-(4-bromophenyl)-acryloylamino]-5,5-dioxo-5H-5^6-dibenzothiophene-2,8-disulfonic acid, disodium salt]	0.5
COc1ccccc1/C=C/C(=O)Nc1cc2c(cc1S(=O)(=O)O)-c1cc(S(=O)(=O)O)c(NC(=O)/C=C/c3ccccc3OC)cc1S2(=O)=O [Example 34, 3,7-Bis-[3-(2-methoxyphenyl)-acryloylamino]-5,5-dioxo-5H-5^6-dibenzothiophene-2,8-disulfonic acid, disodium salt]	2.5
Cc1ccc(C)c(/C=C/C(=O)Nc2cc3c(cc2S(=O)(=O)O)-c2cc(S(=O)(=O)O)c(NC(=O)/C=C/c4cc(C)ccc4C)cc2S3(=O)=O)c1 [Example 35, 3,7-Bis-[3-(2,5-dimethylphenyl)-acryloylamino]-5,5-dioxo-5H-5^6-dibenzothiophene-2,8-disulfonic acid, disodium]	2.5
CC(C)c1ccc(/C=C/C(=O)Nc2cc3c(cc2S(=O)(=O)O)-c2cc(S(=O)(=O)O)c(NC(=O)/C=C/c4ccc(C(C)C)cc4)cc2S3(=O)=O)cc1 [Example 36, 3,7-Bis-[3-(4-isopropylphenyl)-acryloylamino]-5,5-dioxo-5H-5^ -dibenzothiophene-2,8-disulfonic acid, disodium]	6
COc1ccccc1C=CC(=O)Nc1cc2c(cc1S(=O)(=O)O)-c1cc(S(=O)(=O)O)c(NC(=O)C=Cc3ccccc3OC)cc1S2(=O)=O [Example 37, 3,7-Bis-[3-(2-methoxyphenyl)-acryloylamino]-5,5-dioxo-5H-5^6-dibenzothiophene-2,8-disulfonic acid, disodium salt]	2
O=C(/C=C/c1cccc(C(F)(F)F)c1)Nc1cc2c(cc1S(=O)(=O)O)-c1cc(S(=O)(=O)O)c(NC(=O)/C=C/c3cccc(C(F)(F)F)c3)cc1S2(=O)=O [Example 38, 3,7-Bis-[3-(3-trifluoromethyl-phenyl)acryloyl-amino]-5,5-dioxo-5H-5^6-dibenzothiophene-2,8-disulfonic acid, disodium salt]	5
O=C(Nc1cc2c(cc1S(=O)(=O)O)-c1cc(S(=O)(=O)O)c(NC(=O)c3cc4ccccc4s3)cc1S2(=O)=O)c1cc2ccccc2s1 [Example 40, 3,7-Bis-[(benzo[b]thiophene-2-carbonyl)amino]-5,5-dioxo-5H-5^ -dibenzothiophene-2,8-disulfonic acid, disodium]	4
O=C(Nc1cc2c(cc1S(=O)(=O)O)-c1cc(S(=O)(=O)O)c(NC(=O)c3cc4sccc4s3)cc1S2(=O)=O)c1cc2sccc2s1 [Example 43, 5,5-Dioxo-3,7-bis-[(thieno[3,2-b]thiophene-2-carbonyl)-amino]-5H-5^6-dibenzothiophene-2,8-disulfonic acid, disodium]	0.6
Cc1nn(C)c2sc(C(=O)Nc3cc4c(cc3S(=O)(=O)O)-c3cc(S(=O)(=O)O)c(NC(=O)c5cc6c(C)nn(C)c6s5)cc3S4(=O)=O)cc12 [Example 44, 3,7-Bis-[(1,3-di-methyl-1H-thieno[2,3-c]pyrazole-5-carbonyl)amino]-5,5-dioxo-5H-5^6-dibenzothiophene-2,8-disulfonic acid, disodium salt]	1.5
O=C(Nc1cc2c(cc1S(=O)(=O)O)-c1cc(S(=O)(=O)O)c(NC(=O)c3cnn(-c4ccccc4)n3)cc1S2(=O)=O)c1cnn(-c2ccccc2)n1 [Example 46, 5,5-Dioxo-3,7-bis-[(2-phenyl-2H-[1,2,3]triazole-4-carbonyl)amino]-5H-5^6-dibenzothiophene-2,8-disulfonic acid, disodium salt]	5
COc1ccc(C(=O)Nc2cc3c(cc2S(=O)(=O)O)-c2cc(S(=O)(=O)O)c(NC(=O)c4ccc(OC)cc4)cc2S3(=O)=O)cc1 [Example 50, 3,7-Bis-(4-methoxybenzoyl-amino)-5,5-dioxo-5H-5^6-dibenzothiophene-2,8-disulfonic acid, disodium salt]	5
COc1ccc(C(=O)Nc2cc3c(cc2S(=O)(=O)O)-c2cc(S(=O)(=O)O)c(NC(=O)c4ccc(OC)cc4OC)cc2S3(=O)=O)c(OC)c1 [Example 51, 3,7-Bis-(2,4-dimethoxybenzoyl-amino)-5,5-dioxo-5H-5^6-dibenzothiophene-2,8-disulfonic acid disodium salt]	5
